Results taken from ChEMBL document CHEMBL5625249, “Optimization and antifungal activity of quinoline derivatives linked to chalcone moiety combined with FLC against Candida albicans” (Eur J Med Chem, 2023).

Experiments:
Format in all cases: functional
Candida albicans [1] = assay: Synergistic antifungal activity against FLC-sensitive Candida albicans SC5314 measured after 24 hrs in presence of fluconazole by microdilution method
Candida albicans [2] = assay: Antifungal activity against FLC-sensitive Candida albicans SC5314 measured after 24 hrs by microdilution method
Candida albicans [3] = assay: Synergistic antifungal activity against Clinical FLC-resistant Candida albicans 23 measured after 24 hrs in presence of fluconazole by microdilution method
Candida albicans [4] = assay: Antifungal activity against Clinical FLC-resistant Candida albicans 23 measured after 24 hrs by microdilution method
Candida albicans [5] = assay: Synergistic antifungal activity against FLC-sensitive Candida albicans SC5314 assessed as fractional inhibitory concentration index measured after 24 hrs in presence of fluconazole by microdilution method
Candida albicans [6] = assay: Synergistic antifungal activity against Clinical FLC-resistant Candida albicans 23 assessed as fractional inhibitory concentration index measured after 24 hrs in presence of fluconazole by microdilution method

Structure (SMILES): COC(=O)CN1CCN(c2ccc(C(=O)/C=C/c3cc4ccccc4nc3N3CCN(C)CC3)cc2)CC1
- MIC80 (Candida albicans [1]): 14.1 µg/mL
- MIC80 (Candida albicans [2]): > 40 µg/mL
- MIC80 (Candida albicans [3]): > 40 µg/mL
- MIC80 (Candida albicans [4]): > 40 µg/mL
- fractional inhibitory concentration index (FICI) (Candida albicans [5]): 2.6

Structure (SMILES): CN1CCN(c2nc3ccccc3cc2/C=C/C(=O)c2ccc(N3CCN(C(=O)CCCl)CC3)cc2)CC1
- MIC80 (Candida albicans [1]): > 40 µg/mL
- MIC80 (Candida albicans [2]): > 40 µg/mL
- MIC80 (Candida albicans [3]): > 40 µg/mL
- MIC80 (Candida albicans [4]): > 40 µg/mL

Structure (SMILES): CN1CCN(c2nc3ccccc3cc2/C=C/C(=O)c2ccc(N3CCN(CC(=O)c4ccc(F)cc4)CC3)cc2)CC1
- MIC80 (Candida albicans [1]): 6.74 µg/mL
- MIC80 (Candida albicans [2]): > 40 µg/mL
- MIC80 (Candida albicans [3]): > 40 µg/mL
- MIC80 (Candida albicans [4]): > 40 µg/mL
- fractional inhibitory concentration index (FICI) (Candida albicans [5]): 1.25

Structure (SMILES): C=C(C)C(=O)N1CCN(c2ccc(C(=O)/C=C/c3cc4ccccc4nc3N3CCN(C)CC3)cc2)CC1
- MIC80 (Candida albicans [1]): 3.71 µg/mL
- MIC80 (Candida albicans [2]): > 40 µg/mL
- MIC80 (Candida albicans [3]): 4.93 µg/mL
- fractional inhibitory concentration index (FICI) (Candida albicans [6]): 0.12
- MIC80 (Candida albicans [4]): > 40 µg/mL
- fractional inhibitory concentration index (FICI) (Candida albicans [5]): 0.69

Structure (SMILES): Cc1ccc(S(=O)(=O)N2CCN(c3ccc(C(=O)/C=C/c4cc5ccccc5nc4N4CCN(C)CC4)cc3)CC2)cc1
- MIC80 (Candida albicans [1]): > 40 µg/mL
- MIC80 (Candida albicans [2]): > 40 µg/mL
- MIC80 (Candida albicans [3]): 8.08 µg/mL
- fractional inhibitory concentration index (FICI) (Candida albicans [6]): 0.2
- MIC80 (Candida albicans [4]): > 40 µg/mL

Structure (SMILES): CN1CCN(c2nc3ccccc3cc2/C=C/C(=O)c2ccc(N3CCN(S(=O)(=O)C4CC4)CC3)cc2)CC1
- MIC80 (Candida albicans [1]): 4.93 µg/mL
- MIC80 (Candida albicans [2]): > 40 µg/mL
- MIC80 (Candida albicans [3]): 6.03 µg/mL
- fractional inhibitory concentration index (FICI) (Candida albicans [6]): 0.15
- MIC80 (Candida albicans [4]): > 40 µg/mL
- fractional inhibitory concentration index (FICI) (Candida albicans [5]): 0.91

Structure (SMILES): CC(=O)N1CCN(c2ccc(C(=O)/C=C/c3cc4ccccc4nc3N3CCN(C)CC3)cc2)CC1
- MIC80 (Candida albicans [1]): > 40 µg/mL
- MIC80 (Candida albicans [2]): > 40 µg/mL
- MIC80 (Candida albicans [3]): > 40 µg/mL
- MIC80 (Candida albicans [4]): > 40 µg/mL

Structure (SMILES): Cc1ccc(C(=O)CN2CCN(c3ccc(C(=O)/C=C/c4cc5ccccc5nc4N4CCN(C)CC4)cc3)CC2)cc1
- MIC80 (Candida albicans [1]): 5.68 µg/mL
- MIC80 (Candida albicans [2]): > 40 µg/mL
- MIC80 (Candida albicans [3]): 33.4 µg/mL
- fractional inhibitory concentration index (FICI) (Candida albicans [6]): 0.83
- MIC80 (Candida albicans [4]): > 40 µg/mL
- fractional inhibitory concentration index (FICI) (Candida albicans [5]): 1.05

Structure (SMILES): CN1CCN(c2nc3ccccc3cc2/C=C/C(=O)c2ccc(N3CCN(C(=O)c4ccc(Cl)cc4)CC3)cc2)CC1
- MIC80 (Candida albicans [1]): 0.64 µg/mL
- MIC80 (Candida albicans [2]): > 40 µg/mL
- MIC80 (Candida albicans [3]): 1.49 µg/mL
- fractional inhibitory concentration index (FICI) (Candida albicans [6]): 0.04
- MIC80 (Candida albicans [4]): > 40 µg/mL
- fractional inhibitory concentration index (FICI) (Candida albicans [5]): 0.12

Structure (SMILES): CN1CCN(c2nc3ccccc3cc2/C=C/C(=O)c2ccc(N3CCN(C(=O)/C=C/c4ccccc4)CC3)cc2)CC1
- MIC80 (Candida albicans [1]): > 40 µg/mL
- MIC80 (Candida albicans [2]): > 40 µg/mL
- MIC80 (Candida albicans [3]): 5.83 µg/mL
- fractional inhibitory concentration index (FICI) (Candida albicans [6]): 0.15
- MIC80 (Candida albicans [4]): > 40 µg/mL

Structure (SMILES): CN1CCN(c2nc3ccccc3cc2/C=C/C(=O)c2ccc(N3CCN(S(=O)(=O)c4ccc(OC(F)(F)F)cc4)CC3)cc2)CC1
- MIC80 (Candida albicans [1]): 4.31 µg/mL
- MIC80 (Candida albicans [2]): > 40 µg/mL
- MIC80 (Candida albicans [3]): 4.05 µg/mL
- fractional inhibitory concentration index (FICI) (Candida albicans [6]): 0.1
- MIC80 (Candida albicans [4]): > 40 µg/mL
- fractional inhibitory concentration index (FICI) (Candida albicans [5]): 0.8

Structure (SMILES): CN1CCN(c2nc3ccccc3cc2/C=C/C(=O)c2ccc(N3CCN(C(=O)c4ccc(F)cc4)CC3)cc2)CC1
- MIC80 (Candida albicans [1]): 0.88 µg/mL
- MIC80 (Candida albicans [2]): > 40 µg/mL
- MIC80 (Candida albicans [3]): 3.43 µg/mL
- fractional inhibitory concentration index (FICI) (Candida albicans [6]): 0.09
- MIC80 (Candida albicans [4]): > 40 µg/mL
- fractional inhibitory concentration index (FICI) (Candida albicans [5]): 0.16

Structure (SMILES): CN1CCN(c2nc3ccccc3cc2/C=C/C(=O)c2ccc(N3CCN(Cc4ccc(F)c(F)c4)CC3)cc2)CC1
- MIC80 (Candida albicans [1]): 2.06 µg/mL
- MIC80 (Candida albicans [2]): > 40 µg/mL
- MIC80 (Candida albicans [3]): 6.18 µg/mL
- fractional inhibitory concentration index (FICI) (Candida albicans [6]): 0.15
- MIC80 (Candida albicans [4]): > 40 µg/mL
- fractional inhibitory concentration index (FICI) (Candida albicans [5]): 0.38

Structure (SMILES): C=CC(=O)N1CCN(c2ccc(C(=O)/C=C/c3cc4ccccc4nc3N3CCN(C)CC3)cc2)CC1
- MIC80 (Candida albicans [1]): 4.11 µg/mL
- MIC80 (Candida albicans [2]): > 40 µg/mL
- MIC80 (Candida albicans [3]): 26.4 µg/mL
- fractional inhibitory concentration index (FICI) (Candida albicans [6]): 0.66
- MIC80 (Candida albicans [4]): > 40 µg/mL
- fractional inhibitory concentration index (FICI) (Candida albicans [5]): 0.76

Structure (SMILES): CN1CCN(c2nc3ccccc3cc2/C=C/C(=O)c2ccc(N3CCNCC3)cc2)CC1
- MIC80 (Candida albicans [1]): 2.56 µg/mL
- MIC80 (Candida albicans [2]): > 40 µg/mL
- MIC80 (Candida albicans [3]): 24 µg/mL
- fractional inhibitory concentration index (FICI) (Candida albicans [6]): 0.6
- MIC80 (Candida albicans [4]): > 40 µg/mL
- fractional inhibitory concentration index (FICI) (Candida albicans [5]): 0.47

Structure (SMILES): CN1CCN(c2nc3ccccc3cc2/C=C/C(=O)c2ccc(N3CCN(S(C)(=O)=O)CC3)cc2)CC1
- MIC80 (Candida albicans [1]): 28.1 µg/mL
- MIC80 (Candida albicans [2]): > 40 µg/mL
- MIC80 (Candida albicans [3]): 22.5 µg/mL
- fractional inhibitory concentration index (FICI) (Candida albicans [6]): 0.56
- MIC80 (Candida albicans [4]): > 40 µg/mL
- fractional inhibitory concentration index (FICI) (Candida albicans [5]): 5.2

Structure (SMILES): CN1CCN(c2nc3ccccc3cc2/C=C/C(=O)c2ccc(N3CCN(S(=O)(=O)c4ccc(C(F)(F)F)cc4)CC3)cc2)CC1
- MIC80 (Candida albicans [1]): > 40 µg/mL
- MIC80 (Candida albicans [2]): > 40 µg/mL
- MIC80 (Candida albicans [3]): 1.15 µg/mL
- fractional inhibitory concentration index (FICI) (Candida albicans [6]): 0.03
- MIC80 (Candida albicans [4]): > 40 µg/mL

Structure (SMILES): CN1CCN(c2nc3ccccc3cc2/C=C/C(=O)c2ccc(N3CCN(S(=O)(=O)c4ccc([N+](=O)[O-])cc4)CC3)cc2)CC1
- MIC80 (Candida albicans [1]): 17.8 µg/mL
- MIC80 (Candida albicans [2]): > 40 µg/mL
- MIC80 (Candida albicans [3]): > 40 µg/mL
- MIC80 (Candida albicans [4]): > 40 µg/mL
- fractional inhibitory concentration index (FICI) (Candida albicans [5]): 3.3

Structure (SMILES): CN1CCN(c2nc3ccccc3cc2/C=C/C(=O)c2ccc(N3CCN(Cc4ccc(C#N)cc4)CC3)cc2)CC1
- MIC80 (Candida albicans [1]): 4.73 µg/mL
- MIC80 (Candida albicans [2]): > 40 µg/mL
- MIC80 (Candida albicans [3]): 5.4 µg/mL
- fractional inhibitory concentration index (FICI) (Candida albicans [6]): 0.14
- MIC80 (Candida albicans [4]): > 40 µg/mL
- fractional inhibitory concentration index (FICI) (Candida albicans [5]): 0.88

Structure (SMILES): CN1CCN(c2nc3ccccc3cc2/C=C/C(=O)c2ccc(N3CCN(S(=O)(=O)c4ccc(Cl)c(C(F)(F)F)c4)CC3)cc2)CC1
- MIC80 (Candida albicans [1]): 5.31 µg/mL
- MIC80 (Candida albicans [2]): > 40 µg/mL
- MIC80 (Candida albicans [3]): 26.8 µg/mL
- fractional inhibitory concentration index (FICI) (Candida albicans [6]): 0.67
- MIC80 (Candida albicans [4]): > 40 µg/mL
- fractional inhibitory concentration index (FICI) (Candida albicans [5]): 0.98

Structure (SMILES): COc1ccc(C(=O)CN2CCN(c3ccc(C(=O)/C=C/c4cc5ccccc5nc4N4CCN(C)CC4)cc3)CC2)cc1OC
- MIC80 (Candida albicans [1]): 5.5 µg/mL
- MIC80 (Candida albicans [2]): > 40 µg/mL
- MIC80 (Candida albicans [3]): 28.1 µg/mL
- fractional inhibitory concentration index (FICI) (Candida albicans [6]): 0.7
- MIC80 (Candida albicans [4]): > 40 µg/mL
- fractional inhibitory concentration index (FICI) (Candida albicans [5]): 1.01

Structure (SMILES): CN1CCN(c2nc3ccccc3cc2/C=C/C(=O)c2ccc(N3CCN(CC(=O)c4ccc(Cl)c(Cl)c4)CC3)cc2)CC1
- MIC80 (Candida albicans [1]): 17 µg/mL
- MIC80 (Candida albicans [2]): > 40 µg/mL
- MIC80 (Candida albicans [3]): 36.2 µg/mL
- fractional inhibitory concentration index (FICI) (Candida albicans [6]): 0.91
- MIC80 (Candida albicans [4]): > 40 µg/mL
- fractional inhibitory concentration index (FICI) (Candida albicans [5]): 3.14

Structure (SMILES): CN1CCN(c2nc3ccccc3cc2/C=C/C(=O)c2ccc(N3CCN(S(=O)(=O)c4ccc(F)cc4)CC3)cc2)CC1
- MIC80 (Candida albicans [1]): 18.3 µg/mL
- MIC80 (Candida albicans [2]): > 40 µg/mL
- MIC80 (Candida albicans [3]): 1.14 µg/mL
- fractional inhibitory concentration index (FICI) (Candida albicans [6]): 0.03
- MIC80 (Candida albicans [4]): > 40 µg/mL
- fractional inhibitory concentration index (FICI) (Candida albicans [5]): 3.39
